Source: ChEMBL document CHEMBL4346765, “Design, synthesis and biological evaluation of novel dithiocarbamate-substituted diphenylaminopyrimidine derivatives as BTK inhibitors” (Bioorg Med Chem, 2019)
Activity calls are given as the source filed them. The calls are words filed in the database; no cut-off is given here.

Columns and labels:
Ramos [1] = assay: Antiproliferative activity against human Ramos cells assessed as reduction in cell growth incubated for 48 hrs by MTS assay
[2] = molecular target: T1, Tyrosine-protein kinase BTK (Homo sapiens, UniProt Q06187); assay: Inhibition of human recombinant full length BTK expressed in baculovirus in Sf9 insect cells using Poly (4:1 Glu, Tyr) as substrate incubated for 1 hr by ADP-Glo assay
T1 sequence (Q06187 whole entry): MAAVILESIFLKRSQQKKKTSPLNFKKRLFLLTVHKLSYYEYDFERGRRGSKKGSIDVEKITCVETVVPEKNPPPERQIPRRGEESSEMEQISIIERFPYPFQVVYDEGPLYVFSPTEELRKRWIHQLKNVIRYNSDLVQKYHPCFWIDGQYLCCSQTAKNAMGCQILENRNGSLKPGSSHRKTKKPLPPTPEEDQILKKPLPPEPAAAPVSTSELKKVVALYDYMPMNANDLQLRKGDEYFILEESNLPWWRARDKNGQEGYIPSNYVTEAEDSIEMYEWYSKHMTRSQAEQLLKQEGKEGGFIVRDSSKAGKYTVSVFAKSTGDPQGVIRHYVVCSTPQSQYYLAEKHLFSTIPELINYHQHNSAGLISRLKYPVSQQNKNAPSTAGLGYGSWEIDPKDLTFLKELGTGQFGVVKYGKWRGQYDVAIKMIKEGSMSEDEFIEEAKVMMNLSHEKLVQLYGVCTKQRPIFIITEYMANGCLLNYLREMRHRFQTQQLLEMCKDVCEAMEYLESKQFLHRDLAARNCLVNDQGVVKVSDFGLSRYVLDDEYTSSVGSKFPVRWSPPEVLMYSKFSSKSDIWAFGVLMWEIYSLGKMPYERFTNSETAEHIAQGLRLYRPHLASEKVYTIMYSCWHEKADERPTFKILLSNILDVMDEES

Raji = assay: Antiproliferative activity against human Raji cells assessed as reduction in cell growth incubated for 48 hrs by MTS assay
786-0 = assay: Cytotoxicity against human 786-O cells assessed as reduction in cell viability at 0.1 to 40 uM incubated for 48 hrs by MTS assay; assay type: functional, cell-based; details: 786-0, 48 h
KARPAS-299 = assay: Cytotoxicity against human KARPAS299 cells assessed as reduction in cell viability at 0.1 to 40 uM incubated for 48 hrs by MTS assay; assay type: functional, cell-based; details: KARPAS-299, 48 h
A549 = assay: Cytotoxicity against human A549 cells assessed as reduction in cell viability at 0.1 to 40 uM incubated for 48 hrs by MTS assay; assay type: functional, cell-based; details: A549, 48 h
NCI-H3122 = assay: Cytotoxicity against human NCI-H3122 cells assessed as reduction in cell viability at 0.1 to 40 uM incubated for 48 hrs by MTS assay; assay type: functional, cell-based; details: NCI-H3122, 48 h
NCI-H1299 = assay: Cytotoxicity against human H1299 cells assessed as reduction in cell viability at 0.1 to 40 uM incubated for 48 hrs by MTS assay; assay type: functional, cell-based; details: NCI-H1299, 48 h
MDA-MB-231 = assay: Cytotoxicity against human MDA-MB-231 cells assessed as reduction in cell viability at 0.1 to 40 uM incubated for 48 hrs by MTS assay; assay type: functional, cell-based; details: MDA-MB-231, 48 h
HepG2 = assay: Cytotoxicity against human HepG2 cells assessed as reduction in cell viability at 0.1 to 40 uM incubated for 48 hrs by MTS assay; assay type: functional, cell-based; details: HepG2, 48 h
HeLa = assay: Cytotoxicity against human HeLa cells assessed as reduction in cell viability at 0.1 to 40 uM incubated for 48 hrs by MTS assay; assay type: functional, cell-based
Ramos [3] = assay: Antitumor activity in human Ramos cells xenografted in NOD/SCID mouse assessed as reduction in tumor growth at 30 mg/kg/day, ip administered daily for 14 days; assay type: functional; details: 336 h, read-out: TGI
MCF-10A = assay: Cytotoxicity against human MCF10A cells assessed as reduction in cell viability at 0.1 to 40 uM incubated for 48 hrs by MTS assay; assay type: cell-based
HT-29 = assay: Cytotoxicity against human HT-29 cells assessed as reduction in cell viability at 0.1 to 40 uM incubated for 48 hrs by MTS assay; assay type: functional, cell-based; details: HT-29, 48 h
K562 = assay: Cytotoxicity against human K562 cells assessed as reduction in cell viability at 0.1 to 40 uM incubated for 48 hrs by MTS assay; assay type: functional, cell-based; details: K562, 48 h
PC-3 = assay: Cytotoxicity against human PC3 cells assessed as reduction in cell viability at 0.1 to 40 uM incubated for 48 hrs by MTS assay; assay type: functional, cell-based; details: PC-3, 48 h
HEF = assay: Cytotoxicity against human HEF cells assessed as reduction in cell viability at 0.1 to 40 uM incubated for 48 hrs by MTS assay; assay type: cell-based
BJ = assay: Cytotoxicity against human BJ cells assessed as reduction in cell viability at 0.1 to 40 uM incubated for 48 hrs by MTS assay; assay type: cell-based
MCF7 = assay: Cytotoxicity against human MCF7 cells assessed as reduction in cell viability at 0.1 to 40 uM incubated for 48 hrs by MTS assay; assay type: functional, cell-based; details: MCF7, 48 h
Jurkat = assay: Cytotoxicity against human Jurkat cells assessed as reduction in cell viability at 0.1 to 40 uM incubated for 48 hrs by MTS assay; assay type: functional, cell-based
[4] = Cytotoxicity against human HELF cells assessed as reduction in cell viability at 0.1 to 40 uM incubated for 48 hrs by MTS assay; assay type: cell-based
[5] = molecular target: T1, Tyrosine-protein kinase BTK; assay: Inhibition of BTK in anti-IgM-stimulated human Ramos cells assessed as reduction in PLCgamma2 phosphorylation at Y1217 residues at 10 uM incubated for 4 hrs followed by anti-IgM stimulation for 30 mins by Western blot analysis; assay type: cell-based

Row | IC50 (Ramos [1]) [µM] | IC50 [2] [µM] | IC50 (Raji) [µM] | SMILES | also measured
1 | > 40 | 0.241 | > 40 | C=CC(=O)Nc1cccc(Nc2nc(Nc3ccc(OCCSC(=S)N(CCC)CCC)cc3)ncc2F)c1 | –
2 | 14.5 | 0.264 | > 40 | C=CC(=O)Nc1cccc(Nc2nc(Nc3ccc(OCCSC(=S)N4CCN(C(=O)OC(C)(C)C)CC4)cc3)ncc2F)c1 | –
3 | 9.46 | 0.115 | 9.75 | C=CC(=O)Nc1cccc(Nc2nc(Nc3ccc(OCCSC(=S)NC4CCCCC4)cc3)ncc2F)c1 | –
4 | 2.97 | 0.154 | 15.3 | C=CC(=O)Nc1cccc(Nc2nc(Nc3ccc(OCCSC(=S)N4CCCC4)cc3)ncc2F)c1 | –
5 | 9.53 | 0.00144 | 13.8 | C=CC(=O)Nc1cccc(Nc2nc(Nc3ccc(OCCSC(=S)N(C)C)cc3)ncc2F)c1 | –
6 | 5.44 | – | 21.6 | C=CC(=O)Nc1cccc(Nc2nc(Nc3ccc(OCCOC)cc3)ncc2F)c1 [SPEBRUTINIB] | IC50 (786-0): 14.9 µM; IC50 (KARPAS-299): 20.3 µM; IC50 (A549): 1.98 µM; IC50 (NCI-H3122): 32.5 µM; IC50 (NCI-H1299): 38.5 µM; IC50 (MDA-MB-231): > 40 µM; IC50 (HepG2): 33.5 µM; IC50 (HeLa): 17.4 µM; inhibition in vivo at 30 mg/kg/day (Ramos [3]): 28.9%; IC50 (MCF-10A): 4.36 µM; IC50 (HT-29): 18.9 µM; IC50 (K562): 12.6 µM; IC50 (PC-3): 22.2 µM; IC50 (HEF): 22.6 µM; IC50 (BJ): 27.6 µM; IC50 (MCF7): 29 µM; IC50 (Jurkat): 6.7 µM; IC50 [4]: 16 µM
7 | 3.22 | 0.00568 | 1.28 | C=CC(=O)Nc1cccc(Nc2nc(Nc3ccc(OCCSC(=S)NCc4ccc(OC)cc4)cc3)ncc2F)c1 | –
8 | 15.4 | 0.0354 | 10.2 | C=CC(=O)Nc1cccc(Nc2nc(Nc3ccc(OCCCCSC(=S)N(C)C)cc3)ncc2F)c1 | –
9 | 9.31 | 0.0982 | 9.58 | C=CC(=O)Nc1cccc(Nc2nc(Nc3ccc(OCCSC(=S)NC(C)C)cc3)ncc2F)c1 | –
10 | 1.22 | 0.0237 | 0.34 | C=CC(=O)Nc1cccc(Nc2nc(Nc3ccc(NC(=O)CCSC(=S)NCc4cccnc4)cc3)ncc2F)c1 | –
11 | 1.49 | 0.0165 | 1.05 | C=CC(=O)Nc1cccc(Nc2nc(Nc3ccc(OCCCCSC(=S)NCc4cccnc4)cc3)ncc2F)c1 | –
12 | 1.38 | 0.0108 | 2.22 | C=CC(=O)Nc1cccc(Nc2nc(Nc3ccc(OCCSC(=S)NCc4ccccc4)cc3)ncc2F)c1 | –
13 | 9.21 | 0.125 | 20.9 | C=CC(=O)Nc1cccc(Nc2nc(Nc3ccc(OCCSC(=S)N(CCCC)CCCC)cc3)ncc2F)c1 | –
14 | 5.94 | 0.00821 | 7.17 | C=CC(=O)Nc1cccc(Nc2nc(Nc3ccc(OCCSC(=S)NC)cc3)ncc2F)c1 | –
15 | 4.42 | 0.00849 | 6.57 | C=CC(=O)Nc1cccc(Nc2nc(Nc3ccc(OCCSC(=S)NCc4cnccn4)cc3)ncc2F)c1 | –
16 | 7.65 | 0.0836 | 13.4 | C=CC(=O)Nc1cccc(Nc2nc(Nc3ccc(OCCSC(=S)N4CCCCC4)cc3)ncc2F)c1 | –
17 | 2.76 | 0.0803 | 3.53 | C=CC(=O)Nc1cccc(Nc2nc(Nc3ccc(OCCSC(=S)N4CCN(C(C)=O)CC4)cc3)ncc2F)c1 | –
18 | 2.07 | 0.283 | > 40 | C=CC(=O)Nc1cccc(Nc2nc(Nc3ccc(OCCSC(=S)N4CCN(Cc5ccccc5)CC4)cc3)ncc2F)c1 | –
19 | 4.36 | 0.0139 | 4.98 | C=CC(=O)Nc1cccc(Nc2nc(Nc3ccc(OCCCSC(=S)N(C)C)cc3)ncc2F)c1 | –
20 | 3.54 | 0.0233 | 13.7 | C=CC(=O)Nc1cccc(Nc2nc(Nc3ccc(OCCSC(=S)N(CC)CC)cc3)ncc2F)c1 | –
21 | 1.13 | 0.0184 | 0.31 | C=CC(=O)Nc1cccc(Nc2nc(Nc3ccc(NC(=O)CSC(=S)NCc4cccnc4)cc3)ncc2F)c1 | –

Row | IC50 (Ramos [1]) [µM] | IC50 [2] [µM] | IC50 (Raji) [µM] | SMILES | also measured
22 | 20.6 | 0.386 | 15 | C=CC(=O)Nc1cccc(Nc2nc(Nc3ccc(OCCSC(=S)N4CCN(c5ccccc5)CC4)cc3)ncc2F)c1 | –
23 | > 40 | > 0.5 | > 40 | CCC(=O)Nc1cccc(Nc2nc(Nc3ccc(OCCSC(=S)NCc4cccnc4)cc3)ncc2F)c1 | inhibition [5]: inactive
24 | 1.42 | 0.00239 | 1.02 | C=CC(=O)Nc1cccc(Nc2nc(Nc3ccc(OCCCSC(=S)NCc4cccnc4)cc3)ncc2F)c1 | –
25 | 3.44 | 0.015 | 8.64 | C=CC(=O)Nc1cccc(Nc2nc(Nc3ccc(OCCSC(=S)NCC)cc3)ncc2F)c1 | –
26 | 0.574 | 0.00736 | 0.501 | C=CC(=O)Nc1cccc(Nc2nc(Nc3ccc(OCCSC(=S)NCc4ccncc4)cc3)ncc2F)c1 | –
27 | 2.87 | 0.0299 | 4.24 | C=CC(=O)Nc1cccc(Nc2nc(Nc3ccc(OCCSC(=S)N4CCOCC4)cc3)ncc2F)c1 | –
28 | 2.29 | 0.0271 | 6.13 | C=CC(=O)Nc1cccc(Nc2nc(Nc3ccc(OCCSC(=S)N4CC(C)OC(C)C4)cc3)ncc2F)c1 (stereo not drawn) | –
29 | 2.73 | 0.0307 | 4.84 | C=CC(=O)Nc1cccc(Nc2nc(Nc3ccc(OCCSC(=S)N(C)Cc4cccnc4)cc3)ncc2F)c1 | –
30 | 5.09 | 0.0025 | 6.29 | C=CC(=O)Nc1cccc(Nc2nc(Nc3ccc(OCCSC(=S)NC4CC4)cc3)ncc2F)c1 | –
31 | 1.9 | 0.0356 | 3.9 | C=CC(=O)Nc1cccc(Nc2nc(Nc3ccc(OCCSC(=S)N4CCN(C)CC4)cc3)ncc2F)c1 | –
32 | 1.02 | 0.0569 | 3.93 | C=CC(=O)Nc1cccc(Nc2nc(Nc3ccc(OCCSC(=S)N4CCN(C(C)C)CC4)cc3)ncc2F)c1 | –
33 | 1.03 | 0.00858 | 1.22 | C=CC(=O)Nc1cccc(Nc2nc(Nc3ccc(OCCSC(=S)NCc4ccc(C#N)cc4)cc3)ncc2F)c1 | –
34 | 2.67 | 0.0185 | 10.3 | C=CC(=O)Nc1cccc(Nc2nc(Nc3ccc(OCCSC(=S)NCc4ccccn4)cc3)ncc2F)c1 | –
35 | 2.92 | 0.131 | 4.45 | C=CC(=O)Nc1cccc(Nc2nc(Nc3ccc(OCCCCSC(=S)N4CCN(C(C)C)CC4)cc3)ncc2F)c1 | –
36 | 1.36 | 0.0632 | 8.25 | C=CC(=O)Nc1cccc(Nc2nc(Nc3ccc(OCCCSC(=S)N4CCN(C(C)C)CC4)cc3)ncc2F)c1 | –
37 | > 40 | > 0.5 | > 40 | C=CC(=O)Nc1cccc(Nc2nc(Nc3ccc(OCCSC(=S)N4CCc5ccccc5C4)cc3)ncc2F)c1 | –
38 | 2.25 | 0.0486 | 0.561 | C=CC(=O)Nc1cccc(Nc2nc(Nc3ccc(OCCSC(=S)NCc4cc(OC)c(OC)c(OC)c4)cc3)ncc2F)c1 | –
39 | 3.74 | 0.0683 | 7.76 | C=CC(=O)Nc1cccc(Nc2nc(Nc3ccc(OCCSC(=S)N4CCN(CCO)CC4)cc3)ncc2F)c1 | –
40 | 4.32 | 0.0917 | 13.3 | C=CCNC(=S)SCCOc1ccc(Nc2ncc(F)c(Nc3cccc(NC(=O)C=C)c3)n2)cc1 | –
41 | 1.24 | 0.0069 | 1.15 | C=CC(=O)Nc1cccc(Nc2nc(Nc3ccc(OCCSC(=S)NCc4cccc(F)c4)cc3)ncc2F)c1 | –

Row | SMILES | IC50 (Ramos [1]) [µM] | IC50 [2] [µM] | IC50 (Raji) [µM] | also measured
42 | C=CC(=O)N1CCC[C@@H](n2nc(-c3ccc(Oc4ccccc4)cc3)c3c(N)ncnc32)C1 [IBRUTINIB] | 1.88 | – | 17.7 | –
